According to the CheMixHub viscosity set:

Assay: xn = mol fraction of the nth substance listed

Cc1cccc([N+](=O)[O-])c1 + CCCCCC
303.15 K, 101.33 kPa
Conditions	viscosity [mPa·s]
x1 = 0.199	0.38
x1 = 0.416	0.58
x1 = 0.591	0.77
x1 = 0.802	1.11

CC(C)O + CCCCCCC
viscosity [mPa·s], 101 kPa
Conditions	x2 = 0.1003	x2 = 0.2009	x2 = 0.3009	x2 = 0.398	x2 = 0.5002	x2 = 0.5961	x2 = 0.6981	x2 = 0.8014	x2 = 0.9084
293.15 K	1.596	1.178	0.9242	0.7437	0.6223	0.5479	0.493	0.4607	0.436
298.15 K	1.413	1.044	0.8165	0.6851	0.5866	0.5025	0.4623	0.4268	0.4025
303.15 K	1.23	0.927	0.7388	0.62	0.5333	0.4679	0.4351	0.4137	0.3897
308.15 K	1.091	0.8401	0.6728	0.577	0.4915	0.4441	0.4083	0.3805	0.3637

CC1CCCCC1 + CCCCCCC
viscosity [mPa·s]
Conditions	293.15 K	298.15 K	303.15 K	308.15 K	323.15 K
100 kPa, x1 = 0.125	–	–	0.389	–	0.317
100 kPa, x1 = 0.25	–	–	0.411	–	0.335
100 kPa, x1 = 0.375	–	–	0.436	–	0.354
100 kPa, x1 = 0.5	–	–	0.465	–	0.375
100 kPa, x1 = 0.625	–	–	0.498	–	0.4
100 kPa, x1 = 0.75	–	–	0.538	–	0.43
100 kPa, x1 = 0.875	–	–	0.585	–	0.466
101 kPa, x1 = 0.0405	0.4128	0.3963	0.368	–	–
101 kPa, x1 = 0.1021	–	0.411	0.391	0.371	–
101 kPa, x1 = 0.1996	0.4451	0.4235	0.4003	–	–
101 kPa, x1 = 0.2033	–	0.432	0.41	0.389	–
101 kPa, x1 = 0.281	0.4637	0.4402	0.4162	–	–
101 kPa, x1 = 0.3044	–	0.451	0.427	0.403	–
101 kPa, x1 = 0.3593	0.4826	0.4568	0.4317	–	–
101 kPa, x1 = 0.4036	–	0.473	0.449	0.422	–
101 kPa, x1 = 0.4393	0.5042	0.474	0.4476	–	–
101 kPa, x1 = 0.5029	–	0.497	0.47	0.443	–
101 kPa, x1 = 0.6003	0.5514	0.5153	0.4887	–	–
101 kPa, x1 = 0.6033	–	0.526	0.496	0.467	–
101 kPa, x1 = 0.6793	0.5802	0.5399	0.512	–	–
101 kPa, x1 = 0.7038	–	0.556	0.524	0.492	–
101 kPa, x1 = 0.76	0.6141	0.571	0.5395	–	–
101 kPa, x1 = 0.8022	–	0.591	0.557	0.522	–
101 kPa, x1 = 0.84	0.6483	0.6042	0.5687	–	–
101 kPa, x1 = 0.9006	–	0.625	0.589	0.553	–
101 kPa, x1 = 0.9074	0.6821	0.6347	0.5964	–	–

CCCCCCCCCCCCCCCCCCCCCCCC + CCCCCCC
Conditions	viscosity [mPa·s]
313.2 K, 101.3 kPa, x1 = 0.198	0.9672

CCOC(=O)c1ccccc1 + CCCCCCC
viscosity [mPa·s]
Conditions	298.15 K	303.15 K	308.15 K	313.15 K	318.15 K
101 kPa, x1 = 0.1042	–	0.417	0.397	0.37	–
101 kPa, x1 = 0.2052	–	0.475	0.447	0.42	–
101 kPa, x1 = 0.3085	–	0.55	0.514	0.482	–
101 kPa, x1 = 0.4071	–	0.63	0.591	0.55	–
101 kPa, x1 = 0.5078	–	0.738	0.687	0.64	–
101 kPa, x1 = 0.6071	–	0.865	0.802	0.745	–
101 kPa, x1 = 0.7074	–	1.03	0.95	0.875	–
101 kPa, x1 = 0.8047	–	1.217	1.12	1.03	–
101 kPa, x1 = 0.9038	–	1.466	1.34	1.23	–
101.3 kPa, x1 = 0.098	0.428	–	0.387	–	0.351
101.3 kPa, x1 = 0.1952	0.484	–	0.433	–	0.393
101.3 kPa, x1 = 0.2948	0.55	–	0.492	–	0.44
101.3 kPa, x1 = 0.3941	0.638	–	0.564	–	0.498
101.3 kPa, x1 = 0.4961	0.747	–	0.655	–	0.571
101.3 kPa, x1 = 0.5985	0.882	–	0.767	–	0.662
101.3 kPa, x1 = 0.6974	1.047	–	0.912	–	0.771
101.3 kPa, x1 = 0.7984	1.263	–	1.082	–	0.913
101.3 kPa, x1 = 0.8972	1.539	–	1.286	–	1.08

CC1CCCCC1 + CCCCCCCC
viscosity [mPa·s], 101 kPa
Conditions	293.15 K	298.15 K	303.15 K	308.15 K
x1 = 0.0401	0.5414	0.5075	0.482	–
x1 = 0.1044	–	0.524	0.496	0.468
x1 = 0.1998	0.5583	0.5193	0.4944	–
x1 = 0.2066	–	0.535	0.504	0.474
x1 = 0.2801	0.5689	0.5283	0.5018	–
x1 = 0.3045	–	0.543	0.512	0.481
x1 = 0.3514	0.5781	0.5367	0.5067	–
x1 = 0.4068	–	0.557	0.525	0.493
x1 = 0.4282	0.5879	0.5477	0.5161	–
x1 = 0.5043	–	0.57	0.537	0.504
x1 = 0.6015	–	0.586	0.552	0.518
x1 = 0.6051	0.6189	0.5761	0.5389	–
x1 = 0.6759	0.634	0.5912	0.5529	–
x1 = 0.7015	–	0.603	0.567	0.532
x1 = 0.7572	0.6552	0.6123	0.5712	–
x1 = 0.8023	–	0.624	0.587	0.55
x1 = 0.8382	0.6791	0.6323	0.5918	–
x1 = 0.8984	–	0.646	0.607	0.568
x1 = 0.9197	0.7023	0.6539	0.6124	–
x2 = 0.0861	–	0.655	–	–
x2 = 0.1756	–	0.633	–	–
x2 = 0.3246	–	0.602	–	–
x2 = 0.4674	–	0.577	–	–
x2 = 0.6154	–	0.559	–	–
x2 = 0.7785	–	0.526	–	–
x2 = 0.7797	–	0.535	–	–

CCOC(=O)c1ccccc1 + CCCCCCCC
101 kPa
Conditions	viscosity [mPa·s]
298.15 K, x2 = 0.0634	1.743
298.15 K, x2 = 0.1034	1.624
298.15 K, x2 = 0.1463	1.503
298.15 K, x2 = 0.1843	1.405
298.15 K, x2 = 0.2315	1.299
298.15 K, x2 = 0.2774	1.203
298.15 K, x2 = 0.3224	1.125
298.15 K, x2 = 0.4189	0.973
298.15 K, x2 = 0.4608	0.92
298.15 K, x2 = 0.5113	0.861
298.15 K, x2 = 0.5549	0.813
298.15 K, x2 = 0.6018	0.767
298.15 K, x2 = 0.6476	0.726
298.15 K, x2 = 0.6978	0.686
298.15 K, x2 = 0.7588	0.644
298.15 K, x2 = 0.8037	0.616
298.15 K, x2 = 0.8646	0.583
298.15 K, x2 = 0.9214	0.556
303.15 K, x1 = 0.1144	0.526
303.15 K, x1 = 0.2227	0.58
303.15 K, x1 = 0.3291	0.655
303.15 K, x1 = 0.4327	0.738
303.15 K, x1 = 0.532	0.837
303.15 K, x1 = 0.6312	0.961
303.15 K, x1 = 0.7281	1.11
303.15 K, x1 = 0.8205	1.29
303.15 K, x1 = 0.9123	1.505
308.15 K, x1 = 0.1144	0.499
308.15 K, x1 = 0.2227	0.552
308.15 K, x1 = 0.3291	0.616
308.15 K, x1 = 0.4327	0.697
308.15 K, x1 = 0.532	0.786
308.15 K, x1 = 0.6312	0.896
308.15 K, x1 = 0.7281	1.033
308.15 K, x1 = 0.8205	1.197
308.15 K, x1 = 0.9123	1.385
308.15 K, x2 = 0.0649	1.485
308.15 K, x2 = 0.1092	1.382
308.15 K, x2 = 0.1488	1.3
308.15 K, x2 = 0.193	1.212
308.15 K, x2 = 0.2347	1.13
308.15 K, x2 = 0.2789	1.054
308.15 K, x2 = 0.3252	0.98
308.15 K, x2 = 0.3696	0.919
308.15 K, x2 = 0.4206	0.854
308.15 K, x2 = 0.4626	0.807
308.15 K, x2 = 0.5118	0.757
308.15 K, x2 = 0.5624	0.709
308.15 K, x2 = 0.5958	0.682
308.15 K, x2 = 0.6528	0.639
308.15 K, x2 = 0.7049	0.605
308.15 K, x2 = 0.756	0.575
308.15 K, x2 = 0.8027	0.55
308.15 K, x2 = 0.8565	0.525
308.15 K, x2 = 0.9175	0.501
313.15 K, x1 = 0.1144	0.468
313.15 K, x1 = 0.2227	0.516
313.15 K, x1 = 0.3291	0.574
313.15 K, x1 = 0.4327	0.649
313.15 K, x1 = 0.532	0.732
313.15 K, x1 = 0.6312	0.835
313.15 K, x1 = 0.7281	0.961
313.15 K, x1 = 0.8205	1.105
313.15 K, x1 = 0.9123	1.277
318.15 K, x2 = 0.0385	1.272
318.15 K, x2 = 0.0833	1.188
318.15 K, x2 = 0.1243	1.117
318.15 K, x2 = 0.1716	1.038
318.15 K, x2 = 0.2145	0.972
318.15 K, x2 = 0.263	0.905
318.15 K, x2 = 0.3062	0.85
318.15 K, x2 = 0.356	0.793
318.15 K, x2 = 0.4002	0.747
318.15 K, x2 = 0.4505	0.698
318.15 K, x2 = 0.4957	0.662
318.15 K, x2 = 0.5474	0.622
318.15 K, x2 = 0.5939	0.592
318.15 K, x2 = 0.6472	0.56
318.15 K, x2 = 0.6945	0.536
318.15 K, x2 = 0.7483	0.51
318.15 K, x2 = 0.7987	0.491
318.15 K, x2 = 0.8549	0.469
318.15 K, x2 = 0.9034	0.452
